In patent EP0269322B1, “Virginiamycin analogs” (Merck & Co., Inc., priority 1986, dated 1988):
In brackets after ≈: the same amount, converted by molar mass.

Legend:
Gastrin Receptor = biological target: T1, Gastrin Receptor (Cavia porcellus, UniProt H0VZC5); assay: Gastrin receptor binding in guinea pig gastric glands (125I-gastrin); settings: ¹²⁵I-gastrin, 25°C for 30 minutes, read-out: IC₅₀
T1 construct: from tissue; host or cells: guinea pig gastric mucosal glands
T1 sequence (H0VZC5 1-426): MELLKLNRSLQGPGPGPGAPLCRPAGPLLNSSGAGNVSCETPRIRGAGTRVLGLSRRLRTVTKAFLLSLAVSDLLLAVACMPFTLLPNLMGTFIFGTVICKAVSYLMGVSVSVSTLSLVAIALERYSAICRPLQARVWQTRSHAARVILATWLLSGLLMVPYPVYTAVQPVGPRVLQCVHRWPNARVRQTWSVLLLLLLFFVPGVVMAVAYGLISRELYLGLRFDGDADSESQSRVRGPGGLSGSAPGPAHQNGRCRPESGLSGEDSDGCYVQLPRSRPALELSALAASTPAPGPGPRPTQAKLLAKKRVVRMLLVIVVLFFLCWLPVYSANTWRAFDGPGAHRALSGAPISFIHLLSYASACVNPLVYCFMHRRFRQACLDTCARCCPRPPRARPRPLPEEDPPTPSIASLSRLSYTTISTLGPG
Protocol: Guinea pig gastric mucosal glands were prepared by the procedure of Praissman et al., J. Receptor Res. 3:647 (1983). Stomachs from male Hartley guinea pigs (250-400 g body weight) were washed thoroughly and minced with fine scissors in HEPES buffer consisting of the following: 130 mM NaCl, 12 mM NaHCO₃, 3 mM NaH₂PO₄, 3 mM […], 3 mM K₂HPO₄, 2 mM MgSO₄, 1 mM CaCl₂, 5 mM glucose and 4 mM L-glutamine, 25 mM HEPES at pH 7.4. The minced tissues were washed and incubated in a 37°C shaker bath for 40 minutes, with HEPES buffer containing 0.1% collagenase and 0.1% bovine serum albumin (BSA), and bubbled with 95% O₂ and 5% CO₂. The tissues were passed twice through a 5 ml glass syringe to liberate the gastric glands, and then filtered through 200 mesh nylon. The filtered glands were centrifuged at 270 ^x g for 5 minutes and washed twice by resuspension and centrifugation.
The washed guinea pig gastric glands were resuspended in 25 ml of HEPES buffer containing 0.25 mg/ml of bacitracin. For binding studies, 14.2 µl of 50% MeOH/H₂O (for total binding) or gastrin (1 µM final concentration, for nonspecific binding) or broth or test compound from Examples 2, 3 or 4 and 20 µl of ¹²⁵I-gastrin (New England Nuclear [NEN], 20,000 cpm 20 µl) were added to 220 µl of gastric glands in triplicate tubes which were aerated with 95% O₂ and 5% CO₂ and capped. The reaction mixtures, after incubation at 25°C for 30 minutes in a shaking water bath, were filtered under reduced pressure on glass GF/B filters (Whatman) and immediately washed with 3 ^x 4 ml of HEPES buffer containing 0.1% BSA fraction V. The radioactivity on the filters was measured using a Beckman 5500 gamma counter for ¹²⁵I-gastrin.

Micrococcus luteus = assay: Antibiotic activity, filter paper disc agar diffusion MIC; type: cell-based; settings: filter paper discs on agar, 15 hours at 28°C
Protocol: The compounds of Formulae I, II, and IV and virginiamycin M₁ from Example 2 were assayed for antibiotic activity following a method described by Matsen and Barry, Manual of Clinical Microbiology, Lennette, Spaulding, and Truant, Eds., American Society for Microbiology, Washington, D.C., p. 418 (1974). The minimal inhibitory concentrations (MIC) were determined by applying serial dilutions of the compounds of Formulae I, III, and IV and virginiamycin M₁ to standard filter paper discs. The concent↑ation of the test compounds ↑anged f↑om […] to 3.0 µg per disc in 20 µl of diluent. The test organism, Micrococcus luteus, was innoculated on the surface of an agar based nutrient medium in petri plates and the discs placed on the surface of the medium. The nutrient media consisted of nutrient broth supplemented with 0.2% yeast extract and 1.5% agar. The innoculated plates were incubated for 15 hours at 28°C and the zones of inhibition determined. The MIC of each compound was determined by the method described in Matsen and Barry, supra.

| SMILES | IC50 (Gastrin Receptor) [nM] | MIC (Micrococcus luteus) [µM] |
| --- | --- | --- |
| CC1=C\C=C\C(=O)Cc2nc(co2)C(=O)N2CCC=C2C(=O)O[C@H](C(C)C)[C@H](C)/C=C/C(=O)NC\C=C\1 [Compound III] | 90 | 250 (≈ 127 µg/mL) |
| CC1=C\C=C\[C@H](O)Cc2nc(co2)C(=O)N2CCC=C2C(=O)O[C@H](C(C)C)[C@H](C)/C=C/C(=O)NC\C=C\1 [Compound II] | 13 |  |
| CC1=C\C=C\[C@@H](O)Cc2nc(co2)C(=O)N2CCC=C2C(=O)O[C@H](C(C)C)[C@H](C)/C=C/C(=O)NC\C=C\1 [Compound I] | 12 | 90 (≈ 45.9 µg/mL) |
| CC1=C\CCC(=O)Cc2nc(co2)C(=O)N2CCC=C2C(=O)O[C@H](C(C)C)[C@H](C)/C=C/C(=O)NC\C=C\1 [IV] | 360 | 15 (≈ 7.64 µg/mL) |
| CC1=C\[C@@H](O)CC(=O)Cc2nc(co2)C(=O)N2CCC=C2C(=O)O[C@H](C(C)C)[C@H](C)/C=C/C(=O)NC\C=C\1 [Virginiamycin M₁, reference compound] | 710 | 1.5 (≈ 0.788 µg/mL) |
